Laboratory results from US20090104128A1, “Denture adhesive compositions with anti-ucler agents” (Orahealth Corporation, priority 2007, published 2009).

System: mouth ulcers
Assay: tests of cobalamin forms for treatment of mouth ulcers
Format: in vivo
Settings: compared with other cobalamin forms (cyanocobalamin, hydroxocobalamin); tests not described

In the case of `C/C1=C2/[N-][C@H]([C@H](CC(N)=O)[C@@]2(C)CCC(=O)NC[C@@H](C)OP(=O)([O-])O[C@H]2[C@@H](O)[C@@H](n3cnc4cc(C)c(C)cc43)O[C@@H]2CO)[C@]2(C)N=C(/C(C)=C3N=C(/C=C4N=C1[C@@H](CCC(N)=O)C\4(C)C)[C@@H](CCC(N)=O)[C@]\3(C)CC(N)=O)[C@@H](CCC(N)=O)[C@]2(C)CC(N)=O.[CH3-].[Co+3]` [Methylcobalamin, methylcobalamin], the “treatment of mouth ulcers” value is reported as “superior”.
